PMC10392676, “Structural basis of anti-SARS-CoV-2 activity of HCQ: specific binding to N protein to disrupt its interaction with nucleic acids and LLPS” (QRB Discovery, 2021)

Experiments:
[1] = biological target: CTD of SARS-CoV-2 nucleocapsid (N) protein (Severe acute respiratory syndrome coronavirus 2, UniProt P0DTC9); experiment: 1H-15N HSQC NMR titration, […] MHz, one-site fit of chemical shift differences, average of […] residues; assay type: binding
[2] = biological target: NTD of SARS-CoV-2 nucleocapsid (N) protein (Severe acute respiratory syndrome coronavirus 2, UniProt P0DTC9); experiment: as above; assay type: binding

CCN(CCO)CCCC(C)Nc1ccnc2cc(Cl)ccc12 (centres unmarked) [Hydroxychloroquine]
Kd [1]: 52.1 ± 17.6 µM
Kd [2]: 112 ± 32.2 µM
